Data: US20250161238A1, “NMDAR Antagonists Prevent Ageing and Aging-Associated Conditions and Diseases Through Increasing 20S Proteasome Activity” (priority 2022, published 2025)
Entries after “also recorded” stand apart in the source; their conditions may differ.

Legend:
p21-GFP fusion protein = p21-GFP fusion protein amount in cells; format: cell-based, human; conditions: Hep3B expressing p21-GFP
[1] = test system: human mesenchymal stem cells; test: Differentiation markers of mesenchymal stem cells (western blot); format: cell-based; conditions: day 14
From the text: We investigated the differentiation of stem cells in the presence of memantine after cell passages using the simple differentiation method using the DMEM/F12, 10% FBS without coculture of mouse fibroblast (Yoo et all. 2020).
Cell were harvested at day 14 for western blot and the protein expression amounts of the differentiation markers cd44, cd73, and cd90 were investigated. […] Another indicator of the stem cell differentiation is the determination of the amounts of lipid droplet in the cell. Fourteen-day cell passage is caused to increase lipid in the cell. It was observed that memantine treatment has prevented the amount of lipid droplet (FIG. 36D).

mice with GD symptoms = conditions: cited from earlier work
mice = test: Kondziela's inverted screen test in aged mice; format: in vivo; conditions: mice at 22 months
From the text: Kondziela's inverted screen test is one of tests which examine the muscle strength using all four limbs. Four limb-hanging test which is the Kondziella's inverted screen test represents a method to assess muscle strength using all four limbs grip and to determine the general condition during time. […] As a result, the test can provide important information about age-related neuromuscular decline.
The experimental protocols were approved by the Ethics Committee of Ankara University, Faculty of Medicine, Medical Sciences Experimental Research and Application Center (Date: Dec. 11, 2019 and Decision number: 2019-22-189). Adult (12-mounts-old) C57BL/6 mice (5 for each group) were used. The mice were housed at the Experimental Animal Research Laboratory of Ankara University Faculty of Medicine. Food and water were given without restriction. The ambient temperature was kept at 21±2° C., and locomotor activity tests were performed at this temperature. The animals were housed in a room with a 12-hour light/dark cycle. The procedures in the study were performed in accordance with the Ankara University Animal Care Committee according to international guidelines. Memantine (Sigma-Aldrich) was administered orally at 3 mg/Kg/per day with drinking water of one-year-old mice. Tests related to locomotor activities of the mice were recorded and available.
Inverted screen test described firstly Kondizela for muscle strength (Kondizela, 1964). The mouse was put on a center of the rectangular mesh screen (52 cm×32 cm) and the screen was rotated 180° over 2 seconds. The screen was held steadily 40-50 cm above a sawdust surface. Holding time were recorded for a maximum of 5 minutes. The inverted screen was scored previously by Deacon (Falling between 1-10 sec=1 Falling between 11-25 seconds=2 Falling between 26-60 seconds=3 Falling between 61-90 seconds=4 Falling after 90 seconds=5) (Deacon, 2013). According to previous studies, parameters such as Total mobility time % (Gleitz et al, 2017), the latency of falling time, and four limbs griping time (Roemers et al, 2019) were analyzed.

oxidized proteins = test: Oxidation status of proteins in mouse tissues (DNP-hydrazone western blot); format: in vivo; conditions: 24 month old mice
[2] = animals studies; cited from earlier work
melanin and lipofuscin = test: Melanin and lipofuscin staining of mouse tissues; format: in vivo; conditions: mice at 22 months
From the text: Whole frozen tissues were sectioned with a microtome and fixed in 4% paraformaldehyde, Tissues were washed in PBS and the individual staining methods used in accordance with the manufacturer's recommendations. Total pixels from fluorescence in the images were quantified using Adobe Photoshop software CS2 (Adobe Systems), and normalized to a nuclear stain.

[3] = target: T1, acid beta-glucosidase (GCase) (Mus musculus, UniProt P17439); conditions: in vivo; cited from earlier work
T1 construct: host or cells: mice (in vivo), US 2017/0273917 A1 and Klein et al. 2016
T1 sequence (P17439 20-515): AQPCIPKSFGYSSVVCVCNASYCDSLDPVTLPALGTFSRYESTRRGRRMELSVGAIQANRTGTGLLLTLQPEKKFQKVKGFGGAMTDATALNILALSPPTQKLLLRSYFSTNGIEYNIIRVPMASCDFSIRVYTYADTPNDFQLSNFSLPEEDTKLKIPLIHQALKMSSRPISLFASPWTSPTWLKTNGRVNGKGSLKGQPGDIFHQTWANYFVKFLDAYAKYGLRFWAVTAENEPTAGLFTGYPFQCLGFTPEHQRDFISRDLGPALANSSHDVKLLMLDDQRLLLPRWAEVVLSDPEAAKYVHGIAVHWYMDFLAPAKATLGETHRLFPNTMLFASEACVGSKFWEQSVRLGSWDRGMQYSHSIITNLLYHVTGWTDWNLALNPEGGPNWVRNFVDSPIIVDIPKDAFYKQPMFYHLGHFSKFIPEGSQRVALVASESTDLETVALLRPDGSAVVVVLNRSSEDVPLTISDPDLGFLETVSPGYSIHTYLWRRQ

[4] = mice, 30 mg/kg dose; cited from earlier work

Compound | p21-GFP fusion protein / GFP amount (p21-GFP fusion protein) | increase in cd44 protein expression [1] | increase in cd73 protein expression [1] | increase in cd90 protein expression [1] | life span of mice with Gaucher disease symptoms (mice with GD symptoms; A/J, C3H/HeJ, DBA/2J, C57BL6/JolaHsd, CBE 25 mg/kg day) | life span with memantine dose increased by 10 fold (mice with GD symptoms; mouse, in vivo) | four fingers grip time (mice) | mobility time (mice) | time in the inverted frame (latency of falling, holding time) (mice) | oxidation of protein from lung tissue (oxidized proteins) | Oxidized proteins in liver, brain, kidney, skin and pancreas (oxidized proteins; memantin for 12 months) | induction of HSP, neuronal vacuolization and necrosis [2] | amount of lipofuscin (liver) (melanin and lipofuscin) | amount of melanin (skin) (melanin and lipofuscin) | Gcase inhibition and level of Gcase substrates GlcCer and GSLs [3] | tolerability [4]
CNC1(c2ccccc2Cl)CCCCC1=O (stereo not shown) [ketamin, 2-(2-chlorophenyl)-2-(methylamino)-cyclohexanone] | decrease |  |  |  |  |  |  |  |  |  |  |  |  |  |  | 
CC12CC3CC(C)(C1)CC(N)(C3)C2 [memantine, 3,5-dimethyladamantan-1-amine] |  | statistically significantly less | statistically significantly less | statistically significantly less | dramatically extended; also recorded: extend the lifespan | increases the life span of mice even more | more than two times | more than twice as much | twice as long | No significant change | reduced | No induction | statistically decreased | statistically decreased | no effect | well tolerated
